The values below come from patent US20080287469A1, “Phosphoinositide 3-Kinase Inhibitors for Inhibiting Leukocyte Accumulation” (priority 2005, published 2008).

Each structure is given as a SMILES string.

Assay [1] relates to neutrophils on TNFα-inflamed venular endothelium of the cremaster muscle. As to the kind of experiment: Intravital microscopy of TNFα-inflamed cremaster muscle venules, GFP+/− mice. It is filed as in vivo. The source says:
To determine if PI3Kδ contributes to leukocyte accumulation in inflamed tissues, the ability of leukocytes to interact with cytokine-stimulated endothelial cells in microvessels in the cremaster muscle of mice and to transmigrate was examined. Animals heterozygous for GFP expression under the murine lysozyme M locus control, which rendered neutrophils and other granulocytes visible by epifluorescence intravital microscopy, were used to quantitate leukocyte interactions with the vessel wall.
Mice in which green fluorescent protein (GFP) was knocked into the lysozyme M locus or the PI3Kδ catalytic subunit was deleted were generated as previously described [Faust et al., Blood, 96:719-726 (2000); and, Clayton et al., J. Exp. Med., 196:753-763 (2002)]. Subsequent matings were performed to yield mice that were heterozygous for GFP expression but deficient in PI3Kδ expression (mixed 129/Sv-C57BL/6 background) (GFP^+/−/PI3Kδ^−/− animals). All animals were handled in accordance with policies administered by institutional Animal Care and Use Committees.
The surgical preparation of animals for all in vivo studies was performed using standard techniques [see, e.g., Coxon, Immunity, 5:653-666 (1996)]. The cremaster muscle (CM) in GFP^+/− or GFP^+/−/PI3Kδ^−/− animals was inflamed with an intrascrotal injection of murine recombinant TNFα (20 ng/mouse). 2.5 hours after TNFα injection, the tissue was surgically exposed and positioned over a circular glass coverslip (25 mm) on a custom-built plexiglass stage for viewing. The stage was then placed on an intravital microscope (IV-500; Mikron instruments, San Diego, Calif.) equipped with a silicon-intensified camera (VE1000SIT; Dage mti, Michigan City, Ind.) and the tissue kept moist by superfusion with thermo-controled (37° C.) bicarbonate-buffered saline. GFP-expressing cells (predominantly neutrophils, also including fewer monocytes) were visualized through X20 or X40 water immersion objectives (Acroplan, Carl Zeiss Inc.) by epifluorescence from a Xenon arc stroboscope (Chadwick Helmuth, El Monte, Calif.) as they passed through the venous microcirculation of the cremaster muscle. Rolling fraction was defined as the percentage of cells that interact with a given venule in the total number of cells that enter that venule during the same time period. The sticking fraction was defined as the number of rolling cells that became stationary for >30 s post-superfusion of the CM with LTB4 (0.1 μM). Venular shear rates were determined from optical Doppler velocimeter measurements of centerline erythrocyte velocity. The extent of leukocyte transmigration was evaluated at 30 and 60 min after application of LTB4. Video images were recorded using a Hi8 VCR (Sony, Boston, Mass.), and analysis of performed using a PC-based image analysis system [Doggett et al., Biophys. J., 83:194-205 (2002)].
In order for leukocyte transmigration to occur, engagement of the leukocyte integrins with ICAMs expressed on venular endothelium (“firm adhesion”) is necessary for leukocytes to stably adhere to the vessel wall (in addition to the requirement for selectin-mediated tethering and rolling) [Dunne et al., Blood, 99:336-341 (2002)]. To determine the role of PI3Kδ in firm adhesion, the ability of leukocytes rolling on inflamed venular endothelium to undergo integrin-mediated firm adhesion in response to an activating stimulus was investigated in vivo.
These experiments were performed in accordance with the procedures described in Example 2.

For the next assay, the target named is PKBα (Akt 1) (Homo sapiens, UniProt P31749). To be noted: inhibitor 10 μM; reported by Sadhu et al.; cited from earlier work.
The target in the next assay is cSrc (Homo sapiens, UniProt P12931). The note with it: inhibitor 10 μM; reported by Sadhu et al.; cited from earlier work.
In assay [2] the test system is neutrophil accumulation in BAL fluid. The experiment in a line: LPS-induced acute lung injury model, BAL fluid. It is filed as in vivo. To be noted: for reduction in the accumulation of neutrophils in BAL fluid: one hour prior to LPS challenge. The procedure: Lewis rats to be treated with an inhibitor in accordance with the invention or vehicle control (PEG400) were first challenged with LPS [Asti et al., Pulm. Pharmacol Ther., 13:61-69 (2000)]. Briefly, the trachea was exposed by standard surgical procedures and 100 μl saline solution or saline containing LPS (Escherichia Coli Serotype 0111:B4, Sigma) was instilled. Six hours following the challenge, rats were euthanized and the bronchoalveolar lavage (BAL) fluid was collected for cell differentials. Total white blood cell (WBC) and neutrophil counts were determined (Hemavet™ 850 FS cell counter). Cell populations were identified by morphological examination of smears prepared by cytocentrifugation.
Animals received a single oral dose of either a compound in accordance with the invention (25 mg/kg for mice and 20 or 40 mg/kg for rats) or vehicle (PEG-400). Blood samples were subsequently drawn at indicated time points and plasma concentration of the compound determined after liquid-liquid extraction by LC/MS. The lower quantification limit was 50 ng/ml. Plasma samples from control animals (vehicle alone) were used as the blank control.

The next assay addresses PKCα (Homo sapiens, UniProt P17252). The note with it: inhibitor 10 μM; reported by Sadhu et al.; cited from earlier work.
The target in the next assay is ZAP-70 (Homo sapiens, UniProt P43403). As to the kind of experiment: Protein kinase/phosphatase panel: ZAP-70. It is filed as biochemical. To be noted: inhibitor 10 μM; 100 μM ATP.
Another assay addresses PDK1. As to the kind of experiment: Activity of PDK1 immunoprecipitated from TNFα-stimulated HUVECs. Type of assay: cell-based, human. The note with it: incubation of intact HUVECs with compound. The source says:
Thus, PI3Kδ activity is required for PDK1 and Akt function in endothelium as previously described for neutrophils.

A further assay has as its target CHK1 (Homo sapiens, UniProt O14757). To be noted: inhibitor 10 μM; reported by Sadhu et al.; cited from earlier work.
The test system of a further assay is ICAM-1. The experiment in a line: LTB4-triggered firm adhesion of neutrophils to CHO cells transfected with human ICAM-1. The note with it: 2 μM; LTB4 0.1 μM; wall shear stresses 2 and 4 dyn/cm^2. It is filed as cell-based. The procedure:
Purified neutrophils (2×10^6/ml in HBSS buffer containing 2 mM MgCl2) were incubated with 2 μM of a compound in accordance with the invention prior to conducting the adhesion assays. […] Treated neutrophils were then stimulated with LTB4 (0.1 μM) and allowed to bind in stasis to CHO cells transfected with human ICAM-1 before subjecting them to physiological wall shear stresses of 2 and 4 dyn/cm^2. ICAM-1 expression on these cells was confirmed by flow cytometry using mAb R 1/1 (fluorescence intensity>103, data not shown). […] For example, more than 80% of LTB4-stimulated neutrophils remained bound to the ICAM-1 substrate in the presence or absence of an inhibitor in accordance with the invention. The percentage of cells that remained adherent after 20 seconds (s) at each wall shear stress was determined by off-line video analysis.

Chain of CHK1 (O14757 whole entry, species assumed): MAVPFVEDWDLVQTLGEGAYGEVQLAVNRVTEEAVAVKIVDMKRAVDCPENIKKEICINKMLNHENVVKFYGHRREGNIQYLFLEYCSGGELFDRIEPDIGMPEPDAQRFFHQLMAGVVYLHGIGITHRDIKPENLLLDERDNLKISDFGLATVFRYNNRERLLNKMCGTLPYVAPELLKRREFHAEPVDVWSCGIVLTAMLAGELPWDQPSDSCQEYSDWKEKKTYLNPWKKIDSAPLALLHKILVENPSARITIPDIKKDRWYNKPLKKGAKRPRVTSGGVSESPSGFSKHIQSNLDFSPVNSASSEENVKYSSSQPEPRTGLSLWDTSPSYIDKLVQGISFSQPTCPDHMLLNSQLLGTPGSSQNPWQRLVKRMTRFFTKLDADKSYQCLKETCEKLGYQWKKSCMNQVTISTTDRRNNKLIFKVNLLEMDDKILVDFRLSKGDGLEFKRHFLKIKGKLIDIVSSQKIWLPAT
Chain of cSrc (P12931 whole entry, species assumed): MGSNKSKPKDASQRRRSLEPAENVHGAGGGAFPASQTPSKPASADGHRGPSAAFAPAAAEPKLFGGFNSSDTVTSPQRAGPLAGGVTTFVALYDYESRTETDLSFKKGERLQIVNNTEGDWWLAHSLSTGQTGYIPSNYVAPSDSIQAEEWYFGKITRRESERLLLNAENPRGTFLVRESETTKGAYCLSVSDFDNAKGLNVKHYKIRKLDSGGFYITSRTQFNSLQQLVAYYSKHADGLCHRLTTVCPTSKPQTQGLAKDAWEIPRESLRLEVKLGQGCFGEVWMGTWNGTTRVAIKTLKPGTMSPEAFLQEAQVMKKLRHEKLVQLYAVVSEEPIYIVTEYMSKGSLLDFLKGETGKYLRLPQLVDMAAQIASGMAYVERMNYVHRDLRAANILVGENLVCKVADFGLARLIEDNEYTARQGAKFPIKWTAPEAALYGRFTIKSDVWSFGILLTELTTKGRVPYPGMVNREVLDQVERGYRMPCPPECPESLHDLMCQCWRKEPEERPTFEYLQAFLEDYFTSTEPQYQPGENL
Chain of PKBα (Akt 1) (P31749 whole entry, species assumed): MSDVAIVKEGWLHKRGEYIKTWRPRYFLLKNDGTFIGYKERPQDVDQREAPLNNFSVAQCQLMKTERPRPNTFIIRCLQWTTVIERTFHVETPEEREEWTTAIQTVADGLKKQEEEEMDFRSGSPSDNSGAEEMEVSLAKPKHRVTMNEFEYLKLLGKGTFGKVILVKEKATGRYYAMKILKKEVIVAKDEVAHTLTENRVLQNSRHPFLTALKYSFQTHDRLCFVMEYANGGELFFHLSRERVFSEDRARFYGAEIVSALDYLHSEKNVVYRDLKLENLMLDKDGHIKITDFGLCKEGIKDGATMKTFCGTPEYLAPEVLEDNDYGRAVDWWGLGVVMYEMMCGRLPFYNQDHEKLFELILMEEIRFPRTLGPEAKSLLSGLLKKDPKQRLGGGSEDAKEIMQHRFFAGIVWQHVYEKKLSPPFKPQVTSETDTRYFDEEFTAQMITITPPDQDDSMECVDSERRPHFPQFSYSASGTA
Chain of ZAP-70 (P43403 whole entry, species assumed): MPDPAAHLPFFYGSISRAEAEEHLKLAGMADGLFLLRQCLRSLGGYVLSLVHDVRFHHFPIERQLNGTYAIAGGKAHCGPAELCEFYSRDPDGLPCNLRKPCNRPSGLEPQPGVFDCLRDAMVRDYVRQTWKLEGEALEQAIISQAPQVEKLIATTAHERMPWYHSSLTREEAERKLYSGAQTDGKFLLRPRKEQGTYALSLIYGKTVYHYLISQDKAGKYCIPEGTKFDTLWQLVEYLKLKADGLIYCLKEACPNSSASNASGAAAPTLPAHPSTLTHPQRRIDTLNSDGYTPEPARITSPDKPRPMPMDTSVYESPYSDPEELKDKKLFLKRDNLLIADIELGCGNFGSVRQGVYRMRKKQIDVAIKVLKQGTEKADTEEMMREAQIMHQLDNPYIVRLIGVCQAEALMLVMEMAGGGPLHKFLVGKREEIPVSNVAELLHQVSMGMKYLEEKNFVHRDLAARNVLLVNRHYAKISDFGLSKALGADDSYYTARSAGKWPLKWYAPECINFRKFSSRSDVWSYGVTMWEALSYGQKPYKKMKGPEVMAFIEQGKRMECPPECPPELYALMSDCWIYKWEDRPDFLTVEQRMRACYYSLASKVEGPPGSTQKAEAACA

For the compound `Cc1ccccc1-n1c(Cn2cnc3c(N)ncnc32)nc2cccc(C)c2c1=O`, the “mean rolling velocities of neutrophils on TNFα-inflamed venules” value in [1] (GFP+/− animals) is given as 40.5±12.5 μm/s. Besides, in [1] (LTB4 superfusion of cremaster muscle), the “LTB4-induced migration of neutrophils across inflamed microvessels” value was “diminished”. Besides, in [1] (inflamed cremaster muscle superfused with LTB4), the “integrin-mediated firm adhesion of rolling leukocytes in vivo” value was “rapidly transitioned from rolling to firm adhesion”. In addition, in assay [1] (inhibitor-treated GFP+/− animals), the “time the majority of neutrophils rolled before releasing from the vessel wall” value is < 2 s. Moreover, the “interactions between circulating granulocytes and venular endothelium” value in [1] (oral, one hour prior to intrascrotal TNFα, GFP+/− animals, vs vehicle) is recorded as “significantly impaired”. Besides, the “decrease in the number of fluorescent cells that attach and roll” value in [1] (vs vehicle treated mice) was > 50%. Also, the “Activity (% of control) ± SD” value on PKBα (Akt 1) is “No inhibition*”; on cSrc, “No inhibition*”; at PKCα, “No inhibition*”; at ZAP-70, 97.5 ± 13.4 % of control; on CHK1, “No inhibition*”. Besides, the “reduction in the accumulation of neutrophils in BAL fluid” value is on record as “approximately 60%” in [2] (20 mg per kg oral) and ~80% in assay [2] (40 mg per kg oral). In addition, in assay [2] (LPS-treated mice that received inhibitor), the “TNFα in BAL fluid” value is “still detectable”. The “kinase activity of PDK1 in response to TNFα” value on PDK1 was “reduced the kinase activity”. The “LTB4-stimulated neutrophils remaining bound to the ICAM-1 substrate” value in the assay with ICAM-1 is on record as “more than 80%”.
